According to paper PMC6302548, “Dual Inhibition of the Lactate Transporters MCT1 and MCT4 Is Synthetic Lethal with Metformin due to NAD+ Depletion in Cancer Cells” (Cell Reports, 2018):

Experiments:
[1] = biological target: T1, MCT4 (monocarboxylate transporter 4) (Homo sapiens, UniProt O15427); experiment: intracellular lactate accumulation and 3H-lactate efflux in HAP1 MCT1-KO cells; DARTS in HCT116 membrane extracts; type: cell-based
T1 construct: gene SLC16A3
T1 sequence (O15427 2-465): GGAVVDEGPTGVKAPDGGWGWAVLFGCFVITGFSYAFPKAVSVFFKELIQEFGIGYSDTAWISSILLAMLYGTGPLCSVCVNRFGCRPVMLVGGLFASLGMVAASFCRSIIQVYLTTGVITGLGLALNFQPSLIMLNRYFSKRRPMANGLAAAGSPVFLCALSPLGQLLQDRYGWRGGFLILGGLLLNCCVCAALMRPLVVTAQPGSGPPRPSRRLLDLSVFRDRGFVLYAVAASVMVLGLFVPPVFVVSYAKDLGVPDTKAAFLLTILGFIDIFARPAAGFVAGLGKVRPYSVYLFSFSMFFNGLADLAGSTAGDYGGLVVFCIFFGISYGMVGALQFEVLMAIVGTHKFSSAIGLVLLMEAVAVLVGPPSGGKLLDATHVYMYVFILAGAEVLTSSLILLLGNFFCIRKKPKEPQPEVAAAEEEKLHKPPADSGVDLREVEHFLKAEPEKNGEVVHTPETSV
T1 sequence (P35613 22-385 partner): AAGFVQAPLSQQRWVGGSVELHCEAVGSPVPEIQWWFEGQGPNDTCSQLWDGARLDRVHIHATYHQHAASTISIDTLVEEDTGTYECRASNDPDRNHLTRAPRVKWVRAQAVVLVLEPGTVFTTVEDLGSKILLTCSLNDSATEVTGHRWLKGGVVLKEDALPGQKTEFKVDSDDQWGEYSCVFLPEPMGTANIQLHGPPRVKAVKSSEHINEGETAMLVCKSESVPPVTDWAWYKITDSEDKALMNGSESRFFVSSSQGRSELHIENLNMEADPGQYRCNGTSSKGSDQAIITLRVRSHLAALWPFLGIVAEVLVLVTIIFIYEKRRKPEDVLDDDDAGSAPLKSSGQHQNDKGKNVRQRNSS

[2] = biological target: T2, MCT1 (monocarboxylate transporter 1) (Homo sapiens, UniProt P53985); experiment: intracellular lactate accumulation and 3H-lactate efflux in HAP1 MCT4-KO cells; DARTS in HCT116 membrane extracts
T2 construct: gene SLC16A1
T2 sequence (P53985 1-500): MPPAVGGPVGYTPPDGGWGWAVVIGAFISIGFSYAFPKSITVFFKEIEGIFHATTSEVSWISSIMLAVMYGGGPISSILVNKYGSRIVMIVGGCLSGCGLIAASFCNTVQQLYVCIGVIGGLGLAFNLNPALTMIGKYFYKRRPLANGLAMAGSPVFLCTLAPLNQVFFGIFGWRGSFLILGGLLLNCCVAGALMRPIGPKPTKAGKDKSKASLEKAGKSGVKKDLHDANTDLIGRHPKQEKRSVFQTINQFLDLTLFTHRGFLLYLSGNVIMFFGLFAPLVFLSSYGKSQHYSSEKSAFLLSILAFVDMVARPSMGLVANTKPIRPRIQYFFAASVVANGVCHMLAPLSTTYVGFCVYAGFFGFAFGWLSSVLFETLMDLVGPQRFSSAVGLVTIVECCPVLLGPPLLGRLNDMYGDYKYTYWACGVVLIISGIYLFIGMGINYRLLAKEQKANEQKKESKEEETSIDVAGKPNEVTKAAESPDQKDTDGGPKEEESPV
T2 sequence (P35613 22-385 partner): T1 sequence (P35613 22-385 partner)

IC50 [1]: ~0.04 µM
IC50 [2]: ~2.5 µM
Structure (SMILES): CCOC(=O)Oc1c(OC)cc(C(=O)O[C@@H]2C[C@@H]3CN4CCc5c([nH]c6cc(OC)ccc56)[C@H]4C[C@@H]3[C@H](C(=O)OC)[C@H]2OC)cc1OC [Syrosingopine]
